According to paper PMC12566511, “The Evaluation of (1R,4R,7R,10R)-α,α′,α″,α‴-Tetramethyl-1,4,7,10-tetraazacyclododecane-1,4,7,10-tetraacetic Acid (DOTMA) as a Chelator for Zirconium-89” (Molecules, 2025):
Entries after “also recorded” stand apart in the source; their conditions may differ.

Experiments:
[1] = Biodistribution studies in non-tumor-bearing, normal mice; assay type: in vivo, female NIH Swiss mice; conditions: for Biodistribution (%ID/g) Blood / Biodistribution (%ID/g) Bone / Biodistribution (%ID/g) Fat / Biodistribution (%ID/g) Heart / Biodistribution (%ID/g) Kidney / Biodistribution (%ID/g) Large intestine / Biodistribution (%ID/g) Liver / Biodistribution (%ID/g) Lung / Biodistribution (%ID/g) Muscle / Biodistribution (%ID/g) Pancreas / Biodistribution (%ID/g) Small intestine / Biodistribution (%ID/g) Spleen / Biodistribution (%ID/g) Stomach: tail vein, n = 6
Protocol: Female NIH Swiss mice (6–8 weeks old) were purchased from Inotiv, Lafayette, IN, USA. All animals were acclimated to a 12 h light/dark cycle and received food and water ad libitum for 5 days before any manipulations were performed. All animals were checked by veterinary staff daily to ensure well-being and proper environment and to monitor for signs of distress. Clinical signs of distress in laboratory rodents include decreased activity, pilo-erection, un-groomed appearance, excessive licking and scratching, self-mutilation, abnormal stance, hunched appearance, rapid or shallow respiration, grunting, dilated pupils, aggressiveness towards handler, high-pitched vocalizations, change in feeding activity, and attempts to separate from group. In the event of clinical distress, animals were euthanized after consulting the on-call veterinarian. To minimize suffering during the tail vain injection, animals were kept under deep isoflurane anesthesia. At the end point of the study, animals were anesthetized with isoflurane and were euthanized by cervical dislocation, which is consistent with the recommendations of the American Veterinary Medical Association Guidelines on Euthanasia.
Biodistribution studies were conducted using a modified literature procedure. Briefly, female NIH Swiss mice (6–8 weeks old, n = 6/cohort; 30 animals total) were injected with [^89Zr]Zr-DOTMA (0.55 MBq (15 μCi)/mouse) via the tail vein and sacrificed at 2, 4, 24, 48, and 72 h p.i. Organs and tissues of interest were excised, weighed, and counted on a gamma counter. The percent injected dose per gram (%ID/g) was calculated by comparison to a weighed, counted standard for each group.

[2] = In vitro EDTA challenge study; assay type: physicochemical; conditions: for % Intact of [^89Zr]Zr-Complex (n = 3): 37 °C, radio-ITLC
Protocol: The solutions (n = 3) were incubated at 37 °C for 7 days in a thermomixer. Samples were analyzed at 0, 1, 3, 5, and 7 days post administration to EDTA using radio-TLC, Varian ITLC-SA strips, 50 mM EDTA (pH 5) as the mobile phase, and gamma counting. All studies were performed in triplicate.

## CC(C(=O)[O-])N1CCN(C(C)C(=O)[O-])CCN(C(C)C(=O)[O-])CCN(C(C)C(=O)[O-])CC1.[89Zr+4] (stereo not drawn) [[^89Zr]Zr-DOTMA]
[1]; 2 h p.i.
  Biodistribution (%ID/g) Blood: 0.011 ± 0.001 %ID/g
  Biodistribution (%ID/g) Bone: 0.032 ± 0.006 %ID/g
  Biodistribution (%ID/g) Fat: 0.007 ± 0.003 %ID/g
  Biodistribution (%ID/g) Heart: 0.021 ± 0.003 %ID/g
  Biodistribution (%ID/g) Kidney: 1.053 ± 0.071 %ID/g
  Biodistribution (%ID/g) Large intestine: 0.523 ± 0.112 %ID/g
  Biodistribution (%ID/g) Liver: 0.238 ± 0.020 %ID/g
  Biodistribution (%ID/g) Lung: 0.071 ± 0.006 %ID/g
  Biodistribution (%ID/g) Muscle: 0.008 ± 0.003 %ID/g
  Biodistribution (%ID/g) Pancreas: 0.011 ± 0.003 %ID/g
  Biodistribution (%ID/g) Small intestine: 0.229 ± 0.039 %ID/g
  Biodistribution (%ID/g) Spleen: 0.078 ± 0.008 %ID/g
  Biodistribution (%ID/g) Stomach: 0.069 ± 0.008 %ID/g
[1]; 4 h p.i.
  Biodistribution (%ID/g) Blood: 0.008 ± 0.001 %ID/g
  Biodistribution (%ID/g) Bone: 0.024 ± 0.004 %ID/g
  Biodistribution (%ID/g) Fat: 0.006 ± 0.002 %ID/g
  Biodistribution (%ID/g) Heart: 0.019 ± 0.004 %ID/g
  Biodistribution (%ID/g) Kidney: 0.689 ± 0.086 %ID/g
  Biodistribution (%ID/g) Large intestine: 0.632 ± 0.088 %ID/g
  Biodistribution (%ID/g) Liver: 0.123 ± 0.017 %ID/g
  Biodistribution (%ID/g) Lung: 0.060 ± 0.005 %ID/g
  Biodistribution (%ID/g) Muscle: 0.004 ± 0.002 %ID/g
  Biodistribution (%ID/g) Pancreas: 0.010 ± 0.004 %ID/g
  Biodistribution (%ID/g) Small intestine: 0.080 ± 0.007 %ID/g
  Biodistribution (%ID/g) Spleen: 0.076 ± 0.004 %ID/g
  Biodistribution (%ID/g) Stomach: 0.013 ± 0.005 %ID/g
[1]; 24 h p.i.
  Biodistribution (%ID/g) Blood: 0.005 ± 0.001 %ID/g
  Biodistribution (%ID/g) Bone: 0.026 ± 0.004 %ID/g
  Biodistribution (%ID/g) Fat: 0.005 ± 0.002 %ID/g
  Biodistribution (%ID/g) Heart: 0.009 ± 0.002 %ID/g
  Biodistribution (%ID/g) Kidney: 0.077 ± 0.009 %ID/g
  Biodistribution (%ID/g) Large intestine: 0.022 ± 0.008 %ID/g
  Biodistribution (%ID/g) Liver: 0.018 ± 0.002 %ID/g
  Biodistribution (%ID/g) Lung: 0.033 ± 0.004 %ID/g
  Biodistribution (%ID/g) Muscle: 0.001 ± 0.000 %ID/g
  Biodistribution (%ID/g) Pancreas: 0.003 ± 0.001 %ID/g
  Biodistribution (%ID/g) Small intestine: 0.007 ± 0.001 %ID/g
  Biodistribution (%ID/g) Spleen: 0.044 ± 0.005 %ID/g
  Biodistribution (%ID/g) Stomach: 0.005 ± 0.002 %ID/g
[1]; 48 h p.i.
  Biodistribution (%ID/g) Blood: 0.004 ± 0.001 %ID/g
  Biodistribution (%ID/g) Bone: 0.023 ± 0.004 %ID/g
  Biodistribution (%ID/g) Fat: 0.002 ± 0.001 %ID/g
  Biodistribution (%ID/g) Heart: 0.004 ± 0.002 %ID/g
  Biodistribution (%ID/g) Kidney: 0.021 ± 0.003 %ID/g
  Biodistribution (%ID/g) Large intestine: 0.003 ± 0.001 %ID/g
  Biodistribution (%ID/g) Liver: 0.008 ± 0.001 %ID/g
  Biodistribution (%ID/g) Lung: 0.015 ± 0.002 %ID/g
  Biodistribution (%ID/g) Muscle: 0.001 ± 0.001 %ID/g
  Biodistribution (%ID/g) Pancreas: 0.001 ± 0.001 %ID/g
  Biodistribution (%ID/g) Small intestine: 0.002 ± 0.000 %ID/g
  Biodistribution (%ID/g) Spleen: 0.024 ± 0.005 %ID/g
  Biodistribution (%ID/g) Stomach: 0.001 ± 0.000 %ID/g
[1]; 72 h p.i.
  fold less radioactivity associated with liver tissue compared to [^89Zr]Zr-DFO: 9 fold
  fold less radioactivity in the bone tissue than [^89Zr]Zr-DFO: 3 fold
  fold less radioactivity retained in the kidney than [^89Zr]Zr-DFO: 69 fold
  Biodistribution (%ID/g) Blood: 0.003 ± 0.001 %ID/g
  Biodistribution (%ID/g) Bone: 0.023 ± 0.003 %ID/g
  Biodistribution (%ID/g) Fat: 0.001 ± 0.001 %ID/g
  Biodistribution (%ID/g) Heart: 0.004 ± 0.001 %ID/g
  Biodistribution (%ID/g) Kidney: 0.010 ± 0.002 %ID/g
  Biodistribution (%ID/g) Large intestine: 0.003 ± 0.001 %ID/g
  Biodistribution (%ID/g) Liver: 0.007 ± 0.001 %ID/g
  Biodistribution (%ID/g) Lung: 0.013 ± 0.003 %ID/g
  Biodistribution (%ID/g) Muscle: 0.001 ± 0.001 %ID/g
  Biodistribution (%ID/g) Pancreas: 0.001 ± 0.001 %ID/g
  Biodistribution (%ID/g) Small intestine: 0.001 ± 0.000 %ID/g
  Biodistribution (%ID/g) Spleen: 0.026 ± 0.002 %ID/g
  Biodistribution (%ID/g) Stomach: 0.001 ± 0.000 %ID/g
[2]; 1000-fold excess EDTA, pH 5 or pH 7, seven-day time course
  stability to excess EDTA challenge (in words): inert; also recorded: stable
[2]; EDTA 100-fold, pH 5.0, 0 h
  % Intact of [^89Zr]Zr-Complex (n = 3): ≥99.99%
[2]; EDTA 100-fold, pH 5.0, 1 d
  % Intact of [^89Zr]Zr-Complex (n = 3): ≥99.99%
[2]; EDTA 100-fold, pH 5.0, 3 d
  % Intact of [^89Zr]Zr-Complex (n = 3): ≥99.99%
[2]; EDTA 100-fold, pH 5.0, 5 d
  % Intact of [^89Zr]Zr-Complex (n = 3): ≥99.99%
[2]; EDTA 100-fold, pH 5.0, 7 d
  % Intact of [^89Zr]Zr-Complex (n = 3): ≥99.99%
[2]; EDTA 100-fold, pH 7.0, 0 h
  % Intact of [^89Zr]Zr-Complex (n = 3): ≥99.99%
[2]; EDTA 100-fold, pH 7.0, 1 d
  % Intact of [^89Zr]Zr-Complex (n = 3): ≥99.99%
[2]; EDTA 100-fold, pH 7.0, 3 d
  % Intact of [^89Zr]Zr-Complex (n = 3): ≥99.99%
[2]; EDTA 100-fold, pH 7.0, 5 d
  % Intact of [^89Zr]Zr-Complex (n = 3): ≥99.99%
[2]; EDTA 100-fold, pH 7.0, 7 d
  % Intact of [^89Zr]Zr-Complex (n = 3): ≥99.99%
[2]; EDTA 500-fold, pH 5.0, 0 h
  % Intact of [^89Zr]Zr-Complex (n = 3): ≥99.99%
[2]; EDTA 500-fold, pH 5.0, 1 d
  % Intact of [^89Zr]Zr-Complex (n = 3): ≥99.99%
[2]; EDTA 500-fold, pH 5.0, 3 d
  % Intact of [^89Zr]Zr-Complex (n = 3): ≥99.99%
[2]; EDTA 500-fold, pH 5.0, 5 d
  % Intact of [^89Zr]Zr-Complex (n = 3): ≥99.99%
[2]; EDTA 500-fold, pH 5.0, 7 d
  % Intact of [^89Zr]Zr-Complex (n = 3): ≥99.99%
[2]; EDTA 500-fold, pH 7.0, 0 h
  % Intact of [^89Zr]Zr-Complex (n = 3): ≥99.99%
[2]; EDTA 500-fold, pH 7.0, 1 d
  % Intact of [^89Zr]Zr-Complex (n = 3): ≥99.99%
[2]; EDTA 500-fold, pH 7.0, 3 d
  % Intact of [^89Zr]Zr-Complex (n = 3): ≥99.99%
[2]; EDTA 500-fold, pH 7.0, 5 d
  % Intact of [^89Zr]Zr-Complex (n = 3): ≥99.99%
[2]; EDTA 500-fold, pH 7.0, 7 d
  % Intact of [^89Zr]Zr-Complex (n = 3): ≥99.99%
[2]; EDTA 1000-fold, pH 5.0, 0 h
  % Intact of [^89Zr]Zr-Complex (n = 3): ≥99.99%
[2]; EDTA 1000-fold, pH 5.0, 1 d
  % Intact of [^89Zr]Zr-Complex (n = 3): ≥99.99%
[2]; EDTA 1000-fold, pH 5.0, 3 d
  % Intact of [^89Zr]Zr-Complex (n = 3): ≥99.99%
[2]; EDTA 1000-fold, pH 5.0, 5 d
  % Intact of [^89Zr]Zr-Complex (n = 3): ≥99.99%
[2]; EDTA 1000-fold, pH 5.0, 7 d
  % Intact of [^89Zr]Zr-Complex (n = 3): ≥99.99%
[2]; EDTA 1000-fold, pH 7.0, 0 h
  % Intact of [^89Zr]Zr-Complex (n = 3): ≥99.99%
[2]; EDTA 1000-fold, pH 7.0, 1 d
  % Intact of [^89Zr]Zr-Complex (n = 3): ≥99.99%
[2]; EDTA 1000-fold, pH 7.0, 3 d
  % Intact of [^89Zr]Zr-Complex (n = 3): ≥99.99%
[2]; EDTA 1000-fold, pH 7.0, 5 d
  % Intact of [^89Zr]Zr-Complex (n = 3): ≥99.99%
[2]; EDTA 1000-fold, pH 7.0, 7 d
  % Intact of [^89Zr]Zr-Complex (n = 3): ≥99.99%
